Results published in PubChem BioAssay (NCI).
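Each compound was tested at five concentrations against cells in 96-well plates for 48 hours. Definition used: TGI = concentration required for complete inhibition of growth.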

How the values were obtained:
Test in all cases: NCI tumour cell line growth inhibition, 48 h
BT-549 breast = tested on: BT-549 breast
CAKI-1 renal = tested on: CAKI-1 renal
CCRF-CEM leukemia = tested on: CCRF-CEM leukemia
DU-145 prostate = tested on: DU-145 prostate
EKVX NSCLC = tested on: EKVX NSCLC
HCC-2998 colon = tested on: HCC-2998 colon
HL-60(TB) leukemia = tested on: HL-60(TB) leukemia
IGROV1 ovarian = tested on: IGROV1 ovarian
LOX IMVI melanoma = tested on: LOX IMVI melanoma
M14 melanoma = tested on: M14 melanoma
MDA-MB-435 = tested on: MDA-MB-435
NCI-H460 lung = tested on: NCI-H460 lung
RXF 393 renal = tested on: RXF 393 renal
SK-MEL-2 melanoma = tested on: SK-MEL-2 melanoma
SNB-19 CNS = tested on: SNB-19 CNS
SR leukemia = tested on: SR leukemia
T-47D breast = tested on: T-47D breast
TK-10 renal = tested on: TK-10 renal
UACC-257 melanoma = tested on: UACC-257 melanoma
UACC-62 melanoma = tested on: UACC-62 melanoma

Row | SMILES | TGI (BT-549 breast) [µM] | TGI (CAKI-1 renal) [µM] | TGI (CCRF-CEM leukemia) [µM] | TGI (DU-145 prostate) [µM] | TGI (EKVX NSCLC) [µM] | TGI (HCC-2998 colon) [µM] | TGI (HL-60(TB) leukemia) [µM] | TGI (IGROV1 ovarian) [µM] | TGI (LOX IMVI melanoma) [µM] | TGI (M14 melanoma) [µM] | TGI (MDA-MB-435) [µM] | TGI (NCI-H460 lung) [µM] | TGI (RXF 393 renal) [µM] | TGI (SK-MEL-2 melanoma) [µM] | TGI (SNB-19 CNS) [µM] | TGI (SR leukemia) [µM] | TGI (T-47D breast) [µM] | TGI (TK-10 renal) [µM] | TGI (UACC-257 melanoma) [µM] | TGI (UACC-62 melanoma) [µM]
1 | COc1cccc(OC)c1/C=C1\OC(=O)c2cccc(OC)c21 | > 90.6 | > 75.2 | > 100 | > 100 | > 100 | > 100 | > 19.7 | > 100 | > 100 | > 58.9 | 2.12 | > 100 | 65 | > 30.1 | > 100 | > 24.3 | > 100 | > 100 | > 100 | > 31
2 | CC1(C)OCC2OC3(c4nc(C#N)c(N)o4)OC(C)(C)OC3C2O1 (stereo not given) | > 100 | > 100 | > 100 | > 100 | > 100 | > 100 | > 100 | > 100 | > 100 | > 100 | > 100 | > 100 | > 100 | > 100 | > 100 | > 100 | > 100 | > 100 | > 100 | > 100
3 | COC(=O)C1=C(C)NC(C)=C(C(=O)OC)C1c1ccc(/[N+]([O-])=C/c2ccccc2)cc1 | 40.1 | 35 | 48 | > 100 | > 100 | > 100 | 63.2 | > 100 | > 100 | 35.7 | > 100 | > 100 | 41.1 | > 100 | > 100 | 80 | 40.6 | > 100 | > 100 | > 100
4 | O=C(C(=O)N1CCc2ccccc21)c1c[nH]c2ccccc12 | > 10 | > 10 | > 10 | > 10 | > 10 | > 10 | > 10 | > 10 | > 10 | > 10 | > 10 | > 10 | > 10 | > 10 | > 10 | > 10 | > 10 | > 10 | > 10 | > 10
5 | O=C(O)c1nc(-c2ccccn2)c(-c2ccccn2)nc1C(=O)O | 37.6 | 8.5 | > 43.1 | 12.1 | 13.6 | 3.45 | 18.3 | 21 | 16.7 | 3.59 | 30.8 | 4.85 | 9.71 | 29.9 | 19.1 | 9.91 | 24.1 | 15.3 | 16.4 | 6.27
